Target: T1, endogenous UTY (Homo sapiens, UniProt O14607)
T1 construct: endogenous UTY; endogenous in cells; host or cells: THP-1 nuclear extract mixed 1:1 with HEK293 lysate
Test: Bead competition binding assay using immobilized example 1, concentration response curve (HEK293/THP-1 lysate mix)
Details: competition of binding to immobilized example 1, 0.156-40 µM, HEK293 lysate mixed 1:1 with THP-1 nuclear extract
Experimental: Then the affinity matrix with the immobilized example 1 was added to capture proteins that were not interacting with the previously added free reference compound. Beads were separated from the lysate and bead bound proteins were eluted in SDS sample buffer and subsequently separated by SDS-Polyacrylamide gel electrophoresis. The gel was stained with colloidal Coomassie and stained areas of each gel lane were cut out and subjected to in-gel proteolytic digestion with trypsin. Peptides originating from the different gel areas were labeled with isobaric tagging reagents (TMT reagents, Thermofisher) as shown in Table 6.
JMJD3 DNA encoding the catalytic domain (residues 1141-1682, lacking residues 1637-1675; GenBank BC009994) was amplified by PCR and sub cloned into pCDNA3.1 (+) (Invitrogen, V79020) using BamHI and EcoRI A Flag tag was included in the 5' primer, downstream of the BamHI cloning site. […]
HEK293 cells were homogenized in a Potter S homogenizer in lysis buffer: 50 mM Tris-HCl, 0.8% NP40, 5% glycerol, 150 mM NaCl, 1.5 mM MgCl2, 25 mM NaF, 1 mM sodium vanadate, 1 mM DTT, pH 7.5. […] The supernatant was transferred again to a fresh 50 ml falcon tube, the protein concentration was determined by a Bradford assay (BioRad) and samples containing 50 mg of protein per aliquot were prepared. […]

T1 sequence (O14607 whole entry): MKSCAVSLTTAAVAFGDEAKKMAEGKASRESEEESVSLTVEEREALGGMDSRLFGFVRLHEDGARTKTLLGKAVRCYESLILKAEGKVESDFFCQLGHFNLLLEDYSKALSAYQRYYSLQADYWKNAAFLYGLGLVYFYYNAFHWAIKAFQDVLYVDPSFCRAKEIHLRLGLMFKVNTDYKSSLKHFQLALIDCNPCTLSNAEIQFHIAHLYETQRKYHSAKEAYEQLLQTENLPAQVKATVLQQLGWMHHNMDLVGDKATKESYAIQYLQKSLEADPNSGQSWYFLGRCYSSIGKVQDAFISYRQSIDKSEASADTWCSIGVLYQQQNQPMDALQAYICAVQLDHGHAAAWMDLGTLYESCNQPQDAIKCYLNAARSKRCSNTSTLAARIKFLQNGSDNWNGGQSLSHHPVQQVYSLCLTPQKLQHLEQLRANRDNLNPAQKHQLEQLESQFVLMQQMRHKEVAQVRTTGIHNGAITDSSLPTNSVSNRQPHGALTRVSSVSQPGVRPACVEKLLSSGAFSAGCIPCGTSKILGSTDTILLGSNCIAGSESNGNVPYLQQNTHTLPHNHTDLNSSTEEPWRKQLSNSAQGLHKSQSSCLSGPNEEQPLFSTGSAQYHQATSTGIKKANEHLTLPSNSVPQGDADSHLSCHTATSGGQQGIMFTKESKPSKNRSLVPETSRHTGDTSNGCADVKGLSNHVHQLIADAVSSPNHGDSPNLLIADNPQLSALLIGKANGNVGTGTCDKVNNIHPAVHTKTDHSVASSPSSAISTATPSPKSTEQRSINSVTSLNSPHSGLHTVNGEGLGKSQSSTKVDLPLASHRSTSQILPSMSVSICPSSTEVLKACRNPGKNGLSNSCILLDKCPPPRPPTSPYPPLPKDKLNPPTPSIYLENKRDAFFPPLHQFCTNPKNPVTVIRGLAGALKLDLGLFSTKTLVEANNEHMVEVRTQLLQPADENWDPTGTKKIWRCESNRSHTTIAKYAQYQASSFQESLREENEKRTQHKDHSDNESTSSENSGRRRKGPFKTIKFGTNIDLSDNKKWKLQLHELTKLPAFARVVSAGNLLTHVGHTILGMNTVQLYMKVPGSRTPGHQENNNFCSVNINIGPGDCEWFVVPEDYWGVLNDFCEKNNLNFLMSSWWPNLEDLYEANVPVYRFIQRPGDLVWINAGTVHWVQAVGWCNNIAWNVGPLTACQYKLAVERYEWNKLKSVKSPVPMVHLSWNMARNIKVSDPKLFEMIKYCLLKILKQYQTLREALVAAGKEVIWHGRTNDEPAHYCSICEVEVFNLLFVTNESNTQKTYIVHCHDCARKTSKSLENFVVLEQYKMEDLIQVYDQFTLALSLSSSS

- IC50: 1400 nM
SMILES: O=C(O)CCNc1cc(N2CCc3ccccc3CC2)nc(-c2ccccn2)n1 [Reference example 2, N-[2-(2-pyridinyl)-6-(1,2,4,5-tetrahydro-3H-3-benzazepin-3-yl)-4-pyrimidinyl]-β-alanine]

Source: patent EP2592154A1, “Immobilization products and methods for the identification of histone demethylase interacting molecules and for the purification of histone demethylase proteins” (CELLZOME AG, priority 2011, dated 2013)
